Experimental data as given in patent US20250188410A1, “NICOTINAMIDE ADENINE DINUCLEOTIDE (NAD+) PRECURSORS, NAD PATHWAY SUBSTRATES COMPOSITIONS AND USES THEREOF” (Colossal Biosciences Inc., priority 2023, published 2025).
Values joined by “and” are separate entries in the source; they are usually repeats but may differ in a detail not shown here. Equal values may be shown once.

Tests used:
bovine embryos [1] = assay: Attachment rate of embryos at day 11 of culture on MEFs in bEPSCM (Experiment 2); assay type: cell-based
bovine embryos [2] = assay: Measurement of ICM and outgrowths for day 14 embryos before ICM isolation; assay type: cell-based; conditions: IVF embryos
Procedure: (§1) After identifying the NAD^+ precursor dosage, experiment 2 was performed. Embryos were cultured in in vitro culture medium (BO-IVC; IVF Biosciences) supplemented with NA or NMN for 7-14 days in air controlled atmosphere (5% CO2 and 5% O2) at 38.5° C. Embryos cultured with NAD^+ precursor were collected at the blastocyst stage (D7) and plated in co-culture with irradiated mouse embryonic fibroblast (MEF) and bovine ESCs medium ([…]) until day 25 for bovine ESCs Derivation: Timeline bESC Derivation: • D0-D7 Incubation of IVF-produced embryos in IVC supplemented with NAD^+ precursor for seven days. • D7 Plating of embryos for ESC derivation on medium […] on Cf1 MEF. Treatment with Y27632 for last 12 hours of culturing. • D14 Mechanically isolate the ICM and transfer to a new plate. […] NMN and Nicotinic Acid (NA, also known as Niacin) were used as the NAD^+ precursors in this experiment. On day 7 of supplementation, blastocysts were collected and plated on MEFs in a […] medium.

bovine embryos [3] = assay: Presumptive bESC colonies at day 25 by Alkaline Phosphatase staining (bESC derivation); assay type: cell-based; conditions: for number of presumptive bESC colonies (increase): IVF and PA groups, supplementation during the first seven days; for number of presumptive bESC colonies (increase) / # colonies per cm^2 / Average (# colonies per cm^2) / Fold vs Control (presumptive bESC colonies): day 25; for # colonies per cm^2 / Average (# colonies per cm^2) / Fold vs Control (presumptive bESC colonies) / Number of AP+ Colonies: IVF; for Number of AP+ Colonies: day 25, 12 well plate
Procedure: as §1

bovine embryos [4] = assay: Measurement of ICM and outgrowths for day 14 embryos before ICM isolation; assay type: cell-based; conditions: PA embryos
bovine embryos [5] = assay: Presumptive bESC colonies at day 25 by Alkaline Phosphatase staining (bESC derivation); assay type: cell-based; conditions: PA, replicate 1, 5 seed embryos; for # colonies per cm^2 / Average (# colonies per cm^2) / Fold vs Control (presumptive bESC colonies): day 25; for Number of AP+ Colonies: day 25, 12 well plate
bovine embryos [6] = assay: Early embryo development of bovine embryos in IVC medium supplemented with NAD+ precursor (Experiment 1); assay type: cell-based
Procedure: The NAD^+ precursors […] (NMN) or Nicotinic acid […] (NA) (SG; Sigma N7764) were supplemented into in vitro culture medium (BO-IVC; IVF Biosciences), and bovine embryos obtained by in vitro fertilization (IVF) or parthenogenetic activation (PA) were cultured for 7-14 days in air controlled atmosphere (5% CO2 and 5% O2) at 38.5° C. Embryo development was evaluated at day 3 (D3-cleavage rate), day 7 (D7−Blastocyst rate), and day 11 (D11−Hatching rate). In addition, the expansion of hatched blastocysts from day 11-13 was evaluated. Based on this testing (see in Experiment 1 below) suitable dosages of NAD^+ precursors were identified.
Different doses of NMN (125 to 1000 μM) were added to the IVC culture medium containing bovine embryos for up to 14 days. No effect of NAD^+ precursor presence was observed on the cleavage or blastocyst rates for all three replicates (see FIG. 1, FIG. 2A, FIG. 2B, and FIG. 3).

[7] = IVM or embryo culture media supplemented with NMN; cited from earlier work

number of presumptive bESC colonies (increase) (bovine embryos [3])	SMILES	% Attached (bovine embryos [1]; IVF embryos) [%]	Fold vs Control (attachment rate) (bovine embryos [1]; IVF embryos)	% Attached (bovine embryos [1]; PA embryos) [%]	Fold vs Control (attachment rate) (bovine embryos [1]; PA embryos)	AVG Fold (ICM/outgrowth) (bovine embryos [2])	AVG ICM (bovine embryos [2]) [μm]	AVG Outgrowth (bovine embryos [2]) [μm]	# colonies per cm^2 (bovine embryos [3]; replicate 1, 1 seed embryo)	Average (# colonies per cm^2) (bovine embryos [3]; replicate 1, 1 seed embryo)	Fold vs Control (presumptive bESC colonies) (bovine embryos [3]; replicate 1, 1 seed embryo)	Number of AP+ Colonies (bovine embryos [3]; replicate 1, 1 seed embryo)	# colonies per cm^2 (bovine embryos [3]; replicate 2, 5 seed embryos)	Average (# colonies per cm^2) (bovine embryos [3]; replicate 2, 5 seed embryos)	Fold vs Control (presumptive bESC colonies) (bovine embryos [3]; replicate 2, 5 seed embryos)	Number of AP+ Colonies (bovine embryos [3]; replicate 2, 5 seed embryos)	AVG Fold (ICM/outgrowth) (bovine embryos [4])	AVG ICM (bovine embryos [4]) [μm]	AVG Outgrowth (bovine embryos [4]) [μm]	# colonies per cm^2 (bovine embryos [5])	further results
increased by three times	O=C(O)c1cccnc1 [NA, nicotinic acid (pyridine-3-carboxylic acid), reference compound]	100	1.33	60	3	0.09417	76.27	905.9	82 and 72.29 and 8	54.1	2.958	287 and 253 and 28	33.43	33.43	3.25	117	0.1303	48.9	436.7	15.14	Average (# colonies per cm^2) (bovine embryos [5]): 15.14; Fold vs Control (presumptive bESC colonies) (bovine embryos [5]): 2.944; Number of AP+ Colonies (bovine embryos [5]): 53
increased by three times	NC(=O)c1ccc[n+]([C@@H]2O[C@H](COP(=O)([O-])O)[C@@H](O)[C@H]2O)c1 [NMN, nicotinamide mononucleotide]	100	1.33	60	3	0.1124	58.38	645.2	11.14 and 16.29 and 10.86	12.76	0.6979	39 and 57 and 38	16.29	16.29	1.583	57	0.1845	47.2	458.5	12	cleavage rate (bovine embryos [6]; NMN 125 to 1000 μM in IVC culture medium, day 3, three replicates): No effect; blastocyst rate (bovine embryos [6]; NMN 125 to 1000 μM in IVC culture medium, day 7, three replicates): No effect; morphology of hatched blastocysts (bovine embryos [6]; supplementation in IVC, day 11 to day 13): beneficially impact; Average (# colonies per cm^2) (bovine embryos [5]): 12; Fold vs Control (presumptive bESC colonies) (bovine embryos [5]): 2.333; Number of AP+ Colonies (bovine embryos [5]): 42; maturation or embryo development [7]: no effect
